According to the CheMixHub viscosity set:

Test: xn = mol fraction of the nth substance listed

CS(=O)(=O)O + O
viscosity [mPa·s], 100 kPa
Settings | 293.15 K | 298.15 K | 303.15 K | 308.15 K | 313.15 K | 318.15 K
x1 = 0.003409 | 1.037 | 0.9229 | 0.827 | 0.7471 | – | –
x1 = 0.004307 | 1.042 | 0.9279 | 0.833 | – | – | –
x1 = 0.005194 | 1.051 | 0.9391 | 0.8431 | – | – | –
x1 = 0.006086 | 1.064 | 0.9475 | 0.8496 | – | – | –
x1 = 0.006979 | 1.073 | 0.9565 | 0.8598 | – | – | –
x1 = 0.007862 | 1.08 | 0.964 | 0.866 | – | – | –
x1 = 0.008752 | 1.088 | 0.972 | 0.873 | – | – | –
x1 = 0.0177 | 1.173 | 1.048 | 0.9423 | 0.8535 | 0.7777 | 0.713
x1 = 0.02629 | 1.264 | 1.131 | 1.02 | 0.9254 | 0.8437 | 0.7737
x1 = 0.03475 | 1.351 | 1.211 | 1.094 | 0.9939 | 0.9081 | 0.834
x1 = 0.04308 | 1.441 | 1.293 | 1.169 | 1.064 | 0.9738 | 0.8939
x1 = 0.05122 | 1.523 | 1.368 | 1.237 | 1.126 | 1.031 | 0.948
x1 = 0.05919 | 1.609 | 1.448 | 1.311 | 1.193 | 1.094 | 1.007
x1 = 0.06721 | 1.728 | 1.556 | 1.41 | 1.285 | 1.176 | 1.083
x1 = 0.07493 | 1.826 | 1.647 | 1.493 | 1.361 | 1.247 | 1.148
x1 = 0.08256 | 1.934 | 1.745 | 1.583 | 1.444 | 1.323 | 1.218
x1 = 0.09015 | 2.046 | 1.847 | 1.676 | 1.529 | 1.402 | 1.291
x1 = 0.09748 | 2.16 | 1.95 | 1.769 | 1.615 | 1.48 | 1.363
x1 = 0.1048 | 2.299 | 2.076 | 1.885 | 1.719 | 1.576 | 1.452
x1 = 0.112 | 2.411 | 2.177 | 1.977 | 1.803 | 1.652 | 1.519

N[C@@H](Cc1c[nH]cn1)C(=O)O + O
Settings | viscosity [mPa·s]
293.15 K, 101 kPa, x1 = 0.005413 | 1.128
298.15 K, 100 kPa, x1 = 0.000193 | 0.8927
298.15 K, 100 kPa, x1 = 0.00027 | 0.898
298.15 K, 100 kPa, x1 = 0.00036 | 0.899
298.15 K, 100 kPa, x1 = 0.000403 | 0.895
298.15 K, 100 kPa, x1 = 0.00063 | 0.904
298.15 K, 100 kPa, x1 = 0.00072 | 0.907
298.15 K, 100 kPa, x1 = 0.00074 | 0.8987
298.15 K, 100 kPa, x1 = 0.00081 | 0.907
298.15 K, 100 kPa, x1 = 0.00099 | 0.91
298.15 K, 100 kPa, x1 = 0.00117 | 0.913
298.15 K, 100 kPa, x1 = 0.00171 | 0.921
298.15 K, 100 kPa, x1 = 0.001798 | 0.9349
298.15 K, 100 kPa, x1 = 0.0018 | 0.927
298.15 K, 100 kPa, x1 = 0.002157 | 0.9434
298.15 K, 100 kPa, x1 = 0.002516 | 0.9518
298.15 K, 100 kPa, x1 = 0.002876 | 0.9604
298.15 K, 101 kPa, x1 = 0.00027 | 0.898
298.15 K, 101 kPa, x1 = 0.00063 | 0.9034
298.15 K, 101 kPa, x1 = 0.0013 | 0.9127
298.15 K, 101 kPa, x1 = 0.00207 | 0.9208
298.15 K, 101.3 kPa, x1 = 0.0004504 | 0.898
298.15 K, 101.3 kPa, x1 = 0.0008971 | 0.903
298.15 K, 101.3 kPa, x1 = 0.001791 | 0.913
298.15 K, 101.3 kPa, x1 = 0.002688 | 0.924
303.15 K, 100 kPa, x1 = 0.00036 | 0.804
303.15 K, 100 kPa, x1 = 0.00045 | 0.807
303.15 K, 100 kPa, x1 = 0.00054 | 0.807
303.15 K, 100 kPa, x1 = 0.00108 | 0.817
303.15 K, 100 kPa, x1 = 0.00126 | 0.821
303.15 K, 100 kPa, x1 = 0.00144 | 0.827
303.15 K, 100 kPa, x1 = 0.00153 | 0.824
303.15 K, 100 kPa, x1 = 0.00162 | 0.827
303.15 K, 100 kPa, x1 = 0.002157 | 0.8407
303.15 K, 100 kPa, x1 = 0.002516 | 0.8474
303.15 K, 100 kPa, x1 = 0.002876 | 0.8544
303.15 K, 101 kPa, x1 = 0.00027 | 0.8035
303.15 K, 101 kPa, x1 = 0.00063 | 0.8079
303.15 K, 101 kPa, x1 = 0.0013 | 0.8152
303.15 K, 101 kPa, x1 = 0.00243 | 0.8255
303.15 K, 101 kPa, x1 = 0.003563 | 0.8636
303.15 K, 101 kPa, x1 = 0.005413 | 0.8992
303.15 K, 101.3 kPa, x1 = 0.0004504 | 0.804
303.15 K, 101.3 kPa, x1 = 0.002239 | 0.824
308.15 K, 100 kPa, x1 = 0.00027 | 0.727
308.15 K, 100 kPa, x1 = 0.00054 | 0.727
308.15 K, 100 kPa, x1 = 0.00135 | 0.743
308.15 K, 100 kPa, x1 = 0.00143 | 0.74
308.15 K, 100 kPa, x1 = 0.00144 | 0.7434
308.15 K, 100 kPa, x1 = 0.00171 | 0.748
308.15 K, 100 kPa, x1 = 0.002157 | 0.7543
308.15 K, 100 kPa, x1 = 0.002516 | 0.7596
308.15 K, 100 kPa, x1 = 0.002876 | 0.7651
308.15 K, 101 kPa, x1 = 0.00027 | 0.724
308.15 K, 101 kPa, x1 = 0.00063 | 0.7274
308.15 K, 101 kPa, x1 = 0.00099 | 0.7304
308.15 K, 101 kPa, x1 = 0.0013 | 0.7334
308.15 K, 101 kPa, x1 = 0.00243 | 0.7421
308.15 K, 101.3 kPa, x1 = 0.0004504 | 0.723
308.15 K, 101.3 kPa, x1 = 0.0008971 | 0.728
308.15 K, 101.3 kPa, x1 = 0.001346 | 0.733
308.15 K, 101.3 kPa, x1 = 0.002239 | 0.743
308.15 K, 101.3 kPa, x1 = 0.002688 | 0.748
313.15 K, 100 kPa, x1 = 0.000358 | 0.6589
313.15 K, 100 kPa, x1 = 0.00036 | 0.657
313.15 K, 100 kPa, x1 = 0.00099 | 0.672
313.15 K, 100 kPa, x1 = 0.00171 | 0.682
313.15 K, 100 kPa, x1 = 0.001798 | 0.6769
313.15 K, 100 kPa, x1 = 0.002516 | 0.6853
313.15 K, 100 kPa, x1 = 0.002876 | 0.6895
313.15 K, 101 kPa, x1 = 0.00027 | 0.6566
313.15 K, 101 kPa, x1 = 0.00063 | 0.6592
313.15 K, 101 kPa, x1 = 0.00092 | 0.6773
313.15 K, 101 kPa, x1 = 0.00243 | 0.6716
313.15 K, 101 kPa, x1 = 0.003563 | 0.7141
313.15 K, 101.3 kPa, x1 = 0.0004504 | 0.657
313.15 K, 101.3 kPa, x1 = 0.001791 | 0.672
313.15 K, 101.3 kPa, x1 = 0.002239 | 0.677
313.15 K, 101.3 kPa, x1 = 0.002688 | 0.682
318.15 K, 100 kPa, x1 = 0.00027 | 0.603
318.15 K, 100 kPa, x1 = 0.000358 | 0.6026
318.15 K, 100 kPa, x1 = 0.000718 | 0.6065
318.15 K, 100 kPa, x1 = 0.00099 | 0.614
318.15 K, 100 kPa, x1 = 0.00108 | 0.61
318.15 K, 100 kPa, x1 = 0.00117 | 0.616
318.15 K, 100 kPa, x1 = 0.00135 | 0.618
318.15 K, 100 kPa, x1 = 0.00144 | 0.6135
318.15 K, 100 kPa, x1 = 0.00171 | 0.623
318.15 K, 100 kPa, x1 = 0.002157 | 0.62
318.15 K, 100 kPa, x1 = 0.002516 | 0.6232
318.15 K, 100 kPa, x1 = 0.002876 | 0.6262
318.15 K, 101.3 kPa, x1 = 0.0004504 | 0.598
318.15 K, 101.3 kPa, x1 = 0.0008971 | 0.603
318.15 K, 101.3 kPa, x1 = 0.001791 | 0.613
318.15 K, 101.3 kPa, x1 = 0.002239 | 0.618
318.15 K, 101.3 kPa, x1 = 0.002688 | 0.623
323.15 K, 101 kPa, x1 = 0.00092 | 0.5791
323.15 K, 101 kPa, x1 = 0.001804 | 0.5862
323.15 K, 101 kPa, x1 = 0.003563 | 0.6075
323.15 K, 101 kPa, x1 = 0.005413 | 0.6374
